Results reported in patent US11491175B2, “Synergistic bioactive compositions for enhancing cellular energy” (CELAGENEX RESEARCH (INDIA) PVT. LTD., priority 2019, dated 2022).
Where “and” joins values, the source holds several entries; their conditions need not be identical. Equal entries are not always repeated.

How the values were obtained:
[1] = tested on: HepG2 (Human Hepatocyte) cell line; assay: In vitro cytotoxicity by MTT colorimetric assay on HepG2 cell line; format: cell-based; conditions: for % Inhibition: 72 hours incubation
Protocol: The in vitro cytotoxicity study was performed on HepG2 (Human Hepatocyte) cell line to find a nontoxic concentration of the test substances by MTT colorimetric assay and evaluate their potential on cellular respiration by measuring cellular ATP levels.
About 10 mg of all the test substances (as indicated in Table 1) were separately dissolved with 100 μl of Dimethyl sulfoxide (DMSO) and volume was made up with Dulbecco's Modified Eagle Medium-High glucose (DMEM-HG) supplemented with 2% inactivated Fetal Bovine Serum (FBS) to obtain a stock solution of 1 mg/ml concentration and sterilized by 0.22p, syringe filtration. Serial two-fold dilutions were prepared from the stock for carrying out further studies.
The monolayer cell culture was trypsinized and the cell count was adjusted to 1.0×10^5 cells/ml using Ham's F12 medium containing 10% FBS to obtain a cell suspension. To each well of the 96 well microtitre plate, 0.1 ml of the diluted cell suspension was added. After 24 hours, when a partial monolayer was formed, the supernatant was flicked off, the monolayer was washed once with medium and 100 μl of different concentrations of test substances were added. The plate was then incubated at 37° C. for 72 hours in a 5% CO2 atmosphere, and microscopic examination was carried out and observations were noted every 24 hours.
After 72 hours of incubation, the drug solutions in the wells were discarded and 50 μl of MTT in PBS was added to each well. The plate was gently shaken and incubated for 3 hr at 37° C. in a 5% CO2 atmosphere. The supernatant was removed and 100 μl of 2-propanol was added and the plate was gently shaken to solubilize the formed formazan. The absorbance was measured using a microplate reader at a wavelength of 540 nm. The percentage growth inhibition was calculated using the standard formula. The concentration of test substances needed to inhibit the growth of the cell by 50% i.e., CTC50 values were generated from the dose-response curves.

HepG2 cells = assay: Estimation of cellular respiration by measuring cellular ATP levels in HepG2 cells; format: cell-based, Human; conditions: for Cellular ATP / Percentage enhancement of cellular ATP levels over control: HepG2, 2 hours treatment
Protocol: The test substances were evaluated for their in vitro effect on cellular energy by measuring cellular ATP levels in human Hepatocytes (HepG2) cell line.
HepG2 cells were trypsinized from stock culture flasks and the cell count was adjusted to 1.0×10^5 cells/ml to obtain a cell suspension that was seeded into a 96-well plate. […] After 2 hours of treatment, the plate was washed with phosphate buffer saline. The cellular ATP levels determination was performed according to the instructions given in the kit manual (SIGMA, #MAK190). At the end of the experiment, the optical density was read at 570 nm using microplate reader. From the absorbance values, the cellular ATP levels were estimated using kit protocol and the concentration of cellular ATP in treated groups were determined in comparison to the control groups.

[2] = along with H2O2 (20 μM) (IMP 500 μg/ml, NMN 250 μg/ml, IMP + NMN 500 + 250 μg/ml)
[3] = substance alone (IMP 500 μg/ml, NMN 250 μg/ml, IMP + NMN 500 μg/ml, H2O2 20 μM)

Row | Molecule | % Inhibition ([1]; test conc. 62.5 μg/ml) [%] | % Inhibition ([1]; test conc. 125 μg/ml) [%] | % Inhibition ([1]; test conc. 250 μg/ml) [%] | % Inhibition ([1]; test conc. 500 μg/ml) [%] | % Inhibition ([1]; test conc. 1000 μg/ml) [%] | CTC 50 ([1]; 72 hours, concentration needed to inhibit cell growth by 50%) | Cellular ATP (HepG2 cells; [2]) [nmol] | Percentage enhancement of cellular ATP levels over control (HepG2 cells; [2]) [%] | Cellular ATP (HepG2 cells; [3]) [nmol] | Percentage enhancement of cellular ATP levels over control (HepG2 cells; substance alone (IMP 500 μg/ml, NMN 250 μg/ml, IMP + NMN 2:1 500 μg/ml), over hydrogen peroxide control) [%] | Percentage enhancement of cellular ATP levels over control (HepG2 cells; substance alone (IMP 500 μg/ml, NMN 250 μg/ml, IMP + NMN 2:1 500 μg/ml), over hydrogen peroxide control, listed as G4) [%] | cellular ATP levels (in words) (HepG2 cells; HepG2, in combination with Hydrogen peroxide (20 μM))
1 | NC(=O)c1ccc[n+]([C@@H]2O[C@H](COP(=O)([O-])O)[C@@H](O)[C@H]2O)c1 [NMN, β-Nicotinamide mononucleotide] | 2.26 ± 1.49 | 21.59 ± 1.89 | 30.51 ± 0.38 | 59.95 ± 1.78 | 76.59 ± 0.54 | 415 ± 8.99 µg/mL and 415.92 ± 8.99 µg/mL | 8.28 ± 0.65 | 29.01 ± 4.25 | 4.43 ± 0.23 | 13.97±1.25 | 13.97 ± 1.25 | increased the cellular ATP levels significantly
2 | Hydrogen Peroxide [Composition G2] |  |  |  |  |  |  |  |  | 0.86 ± 0.02 |  |  | 
